23 compounds from patent US8859535B2, “Hydroxy substituted isoquinolinone derivatives” (Novartis AG, priority 2011, dated 2014) can be followed below.

The target in experiment [1] is T1, human MDM4 protein (amino acids 2-185) (Homo sapiens, UniProt O15151).
T1 construct: human MDM4 protein (amino acids 2-185); made in house
T1 sequence (O15151 2-185): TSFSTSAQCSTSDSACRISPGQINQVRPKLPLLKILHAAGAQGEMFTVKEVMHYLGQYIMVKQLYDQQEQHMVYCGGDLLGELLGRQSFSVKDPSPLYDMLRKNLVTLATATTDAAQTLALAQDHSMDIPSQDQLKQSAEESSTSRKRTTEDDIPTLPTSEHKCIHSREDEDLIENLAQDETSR
The experiment can be described thus: p53-MDM4 TR-FRET assay (p53-MDM4 Assay 1). In kind it is binding. The following applies: 2.5 nM MDM4-biotinylated, 10 nM Cy5-p53 peptide; read-out: IC50 (μM) of p53-Hdm4 inhibition (TR-FRET) Assay 1. How it is done: (§1) Time Resolved Fluorescence Energy Transfer (TR-FRET) Assay
(§2) The inhibition of p53-MDM2 and p53-MDM4 interactions is measured by time resolved fluorescence energy transfer (TR-FRET). Fluorescence energy transfer (or Foerster resonance energy transfer) describes an energy transfer between donor and acceptor fluorescent molecules. For this assay, human MDM2 protein (amino acids 2-188) and human MDM4 protein (amino acids 2-185), tagged with a C-terminal biotin moiety, are used in combination with a Europium labeled streptavidin (Perkin Elmer, Inc., Waltham, Mass., USA) serving as the donor fluorophore. The p53 derived, Cy5 labeled peptide Cy5-TFSDLWKLL (p53 aa18-26) is the energy acceptor. Upon excitation of the donor molecule at 340 nm, binding interaction between MDM2 or MDM4 and the p53 peptide induces energy transfer and enhanced response at the acceptor emission wavelength at 665 nm. Disruption of the formation of the p53-MDM2 or p53-MDM4 complex due to an inhibitor molecule binding to the p53 binding site of MDM2 or MDM4 results in increased donor emission at 620 nm. The ratiometric FRET assay readout is calculated from the raw data of the two distinct fluorescence signals measured in time resolved mode (fluorescence 665 nm/fluorescence 620 nm×1000).
(§3) After addition of 1.25 nM MDM2-biotinylated or 2.5 nM MDM4-biotinylated (internal preparations), and 0.625 nM Europium labeled streptavidin (Perkin Elmer), the solution is pre-incubated for 15 minutes at room temperature, then 10 nM Cy5-p53 peptide (internal preparation) is added before an incubation at room temperature for 15 minutes prior to reading the plate. For measurement of samples, a Victor II microplate reader (Perkin Elmer) is used with the following settings: Excitation 340 nm, Emission Donor 620 nm and Emission Acceptor 665 nm. IC50 values are calculated by curve fitting using XLfit. If not specified, reagents are purchased from Sigma-Aldrich Chemie GmBH, Buchs, Switzerland.
(§4) This assay was used to evaluate compounds displaying inhibition of p53-MDM2 interaction and p53-MDM4 interaction at IC50s of 0.005 to 50 μM (p53-MDM2 Assay 1 and p53-MDM4 Assay 1, respectively). For selected compounds displaying IC50s between […] on MDM2, a slightly modified assay is used with the following adaptations: 0.1 nM MDM2, 0.1 nM Europium labeled streptavidin and Tecan genios Pro is used as a microplate reader for the fluorescence measurements (p53-MDM2 Assay 2).
Background: Time-resolved FRET reads energy transfer from a long-lived donor to a nearby acceptor.

Experiment [2] deals with T2, human MDM2 protein (amino acids 2-188) (Homo sapiens, UniProt Q00987).
T2 construct: human MDM2 protein (amino acids 2-188); made in house
Briefly: p53-MDM2 TR-FRET assay (p53-MDM2 Assay 1). In kind it is binding. The following applies: 1.25 nM MDM2-biotinylated, 10 nM Cy5-p53 peptide; read-out: IC50 (μM) of p53-Hdm2 inhibition (TR-FRET) Assay 1. How it is done: as §1, §2, §3, §4

T2 sequence (Q00987 2-188): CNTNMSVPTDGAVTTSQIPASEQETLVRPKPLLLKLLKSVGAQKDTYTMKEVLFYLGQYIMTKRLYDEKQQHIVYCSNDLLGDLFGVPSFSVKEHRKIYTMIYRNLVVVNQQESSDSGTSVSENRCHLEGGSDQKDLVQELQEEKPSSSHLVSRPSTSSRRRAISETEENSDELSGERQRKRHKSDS

Turning to `COc1cc2c(cc1OC(C)C)[C@H](c1ccc(Cl)cc1)N(c1ccc([C@@](C)(O)C3CCOCC3)cc1)C(=O)C2` (single isomer, unassigned) [Example 32], the values for the IC50 in experiment [1] and in experiment [2] were 2.19 µM and 0.0023 µM, respectively.
Turning to `COc1cc2c(cc1OC(C)C)[C@H](c1ccc(Cl)cc1)N(c1ccc([C@](C)(O)C3CCOCC3)cc1)C(=O)C2` (single isomer, unassigned) [Example 33], the IC50 – broadly, the concentration that inhibits the measured activity by half – in experiment [1] turned out to be 67.8 µM; in experiment [2], 0.216 µM.
The like results for `COc1cc2c(cc1OC(C)C)[C@H](c1ccc(Cl)cc1)N(c1ccc([C@](C)(O)C3CCOCC3)c(F)c1)C(=O)C2` (single isomer, unassigned) [Example 38] were, in that order, 84 µM and 0.383 µM.
The like results for `COc1cc2c(cc1OC(C)C)[C@H](c1ccc(Cl)cc1)N(c1ccc([C@@](C)(O)C3CCOCC3)c(F)c1)C(=O)C2` (single isomer, unassigned) [Example 39] were, in that order, 1.52 µM and 0.0023 µM.
As to `COc1cc2c(cc1OC(C)C)[C@H](c1ccc(Cl)cc1)N(c1ccc([C@@](C)(O)C3CCC(F)(F)CC3)cc1)C(=O)C2` (single isomer, unassigned) [Example 47], the values for the IC50 in experiment [1] and in experiment [2] were 7.17 µM and 0.005 µM, respectively.
For the compound `COc1cc2c(cc1OC(C)C)[C@H](c1ccc(Cl)cc1)N(c1ccc([C@@](C)(O)C3CCN(C(C)=O)CC3)cc1)C(=O)C2` (single isomer, unassigned) [Example 53], the IC50 in experiment [1] turned out to be 1.62 µM; in experiment [2], 0.0017 µM.
As for `COc1cc2c(cc1OC(C)C)[C@H](c1ccc(Cl)cc1)N(c1ccc([C@](C)(O)C3CCN(C(C)=O)CC3)cc1)C(=O)C2` (single isomer, unassigned) [Example 54], the IC50 came out at 36.7 µM in experiment [1] and 0.105 µM in experiment [2].
As to `COc1cc2c(cc1OC(C)C)[C@H](c1ccc(Cl)cc1)N(c1ccc([C@](C)(O)C3CCN(C)CC3)cc1)C(=O)C2` (single isomer, unassigned) [Example 95], the IC50 in experiment [1] came to 49.9 µM; in experiment [2], 0.129 µM.
Turning to `COc1cc2c(cc1OC(C)C)[C@H](c1ccc(Cl)cc1)N(c1ccc([C@@](C)(O)C34CCC(CC3)O4)cc1)C(=O)C2` (single isomer, unassigned) [Example 136], the IC50 in experiment [1] came out at 2.96 µM; in experiment [2] it was 0.0025 µM.
`COc1cc2c(cc1OC(C)C)[C@H](c1ccc(Cl)cc1)N(c1ccc([C@](C)(O)C34CCC(CC3)O4)cc1)C(=O)C2` (single isomer, unassigned) [Example 137]: the IC50 in experiment [1] turned out to be 25.7 µM; in experiment [2], 0.145 µM.
As for `COc1cc2c(cc1OC(C)C)[C@H](c1ccc(Cl)cc1)N(c1ccc([C@@](C)(O)C34CC5CC(CC(C5)C3)C4)cc1)C(=O)C2` (single isomer, unassigned) [Example 142], the IC50 in experiment [1] worked out at 13.2 µM; in experiment [2], 0.0054 µM.
For `COc1cccc(C(C)(O)c2ccc(N3C(=O)Cc4cc(OC)c(OC(C)C)cc4[C@@H]3c3ccc(Cl)cc3)cc2)c1` (stereo partly drawn) [Example 1, (S)-1-(4-Chloro-phenyl)-2-{4-[1-hydroxy-1-(3-methoxy-phenyl)-ethyl]-phenyl}-7-isopropoxy-6-methoxy-1,4-dihydro-2H-isoquinolin-3-one], the values for the IC50 in experiment [1] and in experiment [2] were 70.8 µM and 0.0432 µM, respectively.
As for `COc1cccc(C(O)c2ccc(N3C(=O)Cc4cc(OC)c(OC(C)C)cc4[C@@H]3c3ccc(Cl)cc3)cc2)c1` (stereo partly drawn) [Example 2, (S)-1-(4-Chloro-phenyl)-2-{4-[hydroxy-(3-methoxy-phenyl)-methyl]-phenyl}-7-isopropoxy-6-methoxy-1,4-dihydro-2H-isoquinolin-3-one], the IC50 in experiment [1] was 87 µM; in experiment [2], 0.0868 µM.
Consider `CCC(C)(O)c1ccc(N2C(=O)Cc3cc(OC)c(OC(C)C)cc3[C@@H]2c2ccc(Cl)cc2)cc1` (stereo partly drawn) [Example 3, (S)-1-(4-Chloro-phenyl)-2-[4-(1-hydroxy-1-methyl-propyl)-phenyl]-7-isopropoxy-6-methoxy-1,4-dihydro-2H-isoquinolin-3-one], for which the IC50 in experiment [1] was found to be 18.9 µM; in experiment [2], 0.0267 µM.
The like results for `COc1ccc(C(O)c2ccc(N3C(=O)Cc4cc(OC)c(OC(C)C)cc4[C@@H]3c3ccc(Cl)cc3)cc2)cc1` (stereo partly drawn) [Example 4, (S)-1-(4-Chloro-phenyl)-2-{4-[hydroxy-(4-methoxy-phenyl)-methyl]-phenyl}-7-isopropoxy-6-methoxy-1,4-dihydro-2H-isoquinolin-3-one] were, in that order, 17.3 µM and 0.0107 µM.
In the case of `COc1ccc(C(C)(O)c2ccc(N3C(=O)Cc4cc(OC)c(OC(C)C)cc4[C@@H]3c3ccc(Cl)cc3)cc2)cc1` (stereo partly drawn) [Example 5, (S)-1-(4-Chloro-phenyl)-2-{4-[1-hydroxy-1-(4-methoxy-phenyl)-ethyl]-phenyl}-7-isopropoxy-6-methoxy-1,4-dihydro-2H-isoquinolin-3-one], the figures for the IC50 in experiment [1] and in experiment [2] were 10.5 µM and 0.0082 µM, respectively.
For `COc1cc2c(cc1OC(C)C)[C@H](c1ccc(Cl)cc1)N(c1ccc(C(C)(O)c3ccc(F)cc3)cc1)C(=O)C2` (stereo partly drawn) [Example 6, (S)-1-(4-Chloro-phenyl)-2-{4-[1-(4-fluoro-phenyl)-1-hydroxy-ethyl]-phenyl}-7-isopropoxy-6-methoxy-1,4-dihydro-2H-isoquinolin-3-one], the IC50 in experiment [1] is 61.8 µM; in experiment [2], 0.0343 µM.
`COc1ccc(C(O)(c2ccc(N3C(=O)Cc4cc(OC)c(OC(C)C)cc4[C@@H]3c3ccc(Cl)cc3)cc2)C(F)(F)F)cc1` (stereo partly drawn) [Example 7, (S)-1-(4-Chloro-phenyl)-7-isopropoxy-6-methoxy-2-{4-[2,2,2-trifluoro-1-hydroxy-1-(4-methoxy-phenyl)-ethyl]-phenyl}-1,4-dihydro-2H-isoquinolin-3-one]: the figures for the IC50 in experiment [1] and in experiment [2] were 49.3 µM and 0.132 µM, respectively.
The like results for `COc1cc2c(cc1OC(C)C)[C@H](c1ccc(Cl)cc1)N(c1ccc(C(O)C3CCCCC3)cc1)C(=O)C2` (stereo partly drawn) [Example 8, (S)-1-(4-Chloro-phenyl)-2-[4-(cyclohexyl-hydroxy-methyl)-phenyl]-7-isopropoxy-6-methoxy-1,4-dihydro-2H-isoquinolin-3-one] were, in that order, 61.3 µM and 0.0316 µM.
Take `COc1cc2c(cc1OC(C)C)[C@H](c1ccc(Cl)cc1)N(c1ccc(C(C)(C)O)cc1)C(=O)C2` [Example 11, (S)-1-(4-Chloro-phenyl)-2-[4-(1-hydroxy-1-methyl-ethyl)-phenyl]-7-isopropoxy-6-methoxy-1,4-dihydro-2H-isoquinolin-3-one]: the IC50 was found to be 51.6 µM in experiment [1] and 0.0555 µM in experiment [2].
For the compound `COc1cc2c(cc1OC(C)C)[C@H](c1ccc(Cl)cc1)N(c1ccc(C(C)(O)c3ccncc3)cn1)C(=O)C2` (stereo partly drawn) [Example 12, (S)-1-(4-Chloro-phenyl)-2-[5-(1-hydroxy-1-pyridin-4-yl-ethyl)-pyridin-2-yl]-7-isopropoxy-6-methoxy-1,4-dihydro-2H-isoquinolin-3-one], the values for the IC50 in experiment [1] and in experiment [2] were 23.9 µM and 0.0195 µM, respectively.
Turning to `COc1cc2c(cc1OC(C)C)[C@H](c1ccc(Cl)cc1)N(c1ccc(C(C)(O)c3cn(C)cn3)cc1)C(=O)C2` (stereo partly drawn) [Example 13, (S)-1-(4-Chloro-phenyl)-2-{4-[1-hydroxy-1-(1-methyl-1H-imidazol-4-yl)-ethyl]-phenyl}-7-isopropoxy-6-methoxy-1,4-dihydro-2H-isoquinolin-3-one], the IC50 in experiment [1] stood at 82.7 µM; in experiment [2], 0.0608 µM.
For `COc1cc2c(cc1OC(C)C)[C@H](c1ccc(Cl)cc1)N(c1ccc(C(C)(O)c3ccn(C)n3)cc1)C(=O)C2` (stereo partly drawn) [Example 14, (S)-1-(4-Chloro-phenyl)-2-{4-[1-hydroxy-1-(1-methyl-1H-pyrazol-3-yl)-ethyl]-phenyl}-7-isopropoxy-6-methoxy-1,4-dihydro-2H-isoquinolin-3-one], the IC50 turned out to be 53.7 µM in experiment [1] and 0.0494 µM in experiment [2].
